Results on three compounds are retold here after US10610582B2, “Compound and method for vaccination and immunisation” (PCI Biotech AS, priority 2013, dated 2020).

One assay concerns IFN-γ. The assay is classed as in vivo, C57BL/6 mice. The conditions noted are these: day 14 spleen, 10 μg OVA + labelled TLR ligand + PCI, compared with other groups.
In the next assay the test system is IL-2. It counts as in vivo, C57BL/6 mice. The conditions noted are these: day 14 spleen, 10 μg OVA + labelled TLR ligand + PCI, compared with other groups.
A further assay concerns OVA-specific CD8 T-cells. In words: Vaccination with OVA, Poly(IC) or CpG ODN2395 in mice given OT-1 cells: OVA-specific CD8 T-cells in blood by flow cytometry (Example 3). The assay is classed as in vivo, C57BL/6 mice. The conditions noted are these: day 7. On the procedure: One day prior to the immunisation, spleens and lymph nodes were isolated from female OT-1 mice, and erythrocytes were removed by lysis (RBC Lysing Buffer Hybri-Max from Sigma-Aldrich) from the homogenised cell suspensions. […] One day or 8 hours later, mice were bled by tail bleeding, and the blood was collected in heparin-containing tubes for analysis of the baseline frequency of OVA-specific CD8 T cells.
The illumination time was 6 minutes.
At the end of the experiment (day 14), the mice were euthanized and the splenocytes analysed ex vivo.
(A flow cytometer gives signals particle by particle.)

For assay [1], the system named is antigen specific CD8 T-cells. It counts as in vivo, C57BL/6 mice. Conditions: particularly after 2nd immunisation; 200 μg OVA + 50 μg poly(IC) + PCI (150 μg TPCS2a + light), group 5. The text has this:
The following experimental groups were included:

In assay [2] the test system is antigen-specific CD8+ T-cells (TRP-2 pentamer). In words: PCI with melanoma antigen peptides (TRP-2 and gp100) and poly(IC) in normal mice, TRP-2 pentamer flow cytometry (Example 6). It counts as in vivo, C57BL/6 mice. Conditions: after 2nd immunisation.
Assay [3] has as its system antigen specific CD8 T-cells. The assay is classed as in vivo, C57BL/6 mice. Conditions: 3rd immunisation (day 51) with poly(IC)+PCI after two immunisations with poly(IC) only, group 2. How it is done: The generation of immunological memory was tested by a 3rd immunisation at day 51 with a poly(IC)+PCI treatment. […]
Assay [4] concerns antigen specific CD8 T-cells. It counts as in vivo, C57BL/6 mice. The conditions noted are these: 200 μg OVA + 10 μg poly(IC) injected 2 h before illumination, TPCS2a 150 μg 18 h before illumination. On the procedure:
In all groups TPCS2a was injected 18 h before illumination, while OVA antigen and poly(IC) was either injected 18 h before illumination in a mixture with TPCS2a, or 2 h before illumination as a separate injection. Illumination was for 6 min with the LumiSource illumination device. […]

Assay [5] relates to antigen specific CD8 T-cells (HPV pentamer). In words: PCI with HPV peptide antigen and poly(IC) in normal mice, HPV pentamer flow cytometry (Example 12). Conditions: after three immunisations; 50 μg HPV peptide + 10 μg poly(IC) twice, 3rd with poly(IC) + PCI (100 μg TPCS2a + light), group 6.
Assay [6] has the same test system. Briefly: PCI with HPV long peptide antigen and poly(IC) in normal mice, HPV pentamer flow cytometry (Example 15).
For assay [7] the test system is unchanged. Briefly: PCI with HPV short peptide antigen and poly(IC) in normal mice, HPV pentamer flow cytometry (Example 16).
In assay [8] the test system is antigen specific CD8 T-cells.
Where [9] appears, read: 10 μg OVA with the labelled agent alone (50 μg ODN2395 CpG or 50 μg Poly(IC) without PCI; PCI = 150 μg TPCS2a + light without adjuvant).
Where [10] appears, read: TRP-2 + gp100 peptides (50 μg each) with the labelled agent alone (10 μg poly(IC), or PCI = 100 μg TPCS2a + light), vs untreated.
The mark [11] stands for this setting: HPV short peptide with only the labelled agent (only p(IC) or only PCI) for both immunisations.

Like-named read-outs stand apart in the source and are kept apart here.

As for `CCOCc1nc2c(N)nc3ccccc3c2n1CC(C)(C)O` [R848, 1-[4-amino-2-(ethoxymethyl)imidazo[4,5-c]quinolin-1-yl]-2-methylpropan-2-ol], in the assay with IFN-γ, the “IFN-γ production in total spleen cells (ELISA)” value is given as “highest”. Besides, the “IL-2 production in total spleen cells (ELISA)” value with IL-2 was “highest”.

In the case of “Polyinosine-polycytidylic acid [Poly(IC)]”, the “% antigen-specific, CD44+ cells of the total CD8+ cells in blood” value in the assay with OVA-specific CD8 T-cells (10 μg OVA + 50 μg labelled adjuvant combined with PCI (150 μg TPCS2a + light)) was “clear synergistic effect”; in the assay with OVA-specific CD8 T-cells (setting [9]), “no significant”. Moreover, the “% antigen-specific, CD44+ cells of the total CD8+ cells” value in assay [1] is reported as “substantially better immunisation than only poly(IC) (group 4) or only PCI (group 3)”; in assay [3], “did not seem to boost immunisation to any significant degree”; in [4], “immune response is enhance”; in [8] (10 μg OVA + poly(IC) (50 μg 1st, 10 μg 2nd) + red light PCI, group 6), “required to achieve an immune response”; in assay [8] (100 μg OVA + poly(IC) (50 μg 1st, 10 μg 2nd) + red light PCI, group 7, vs antigen alone), “substantially better”. For the same compound, the “% antigen-specific, CD44+ cells of the total CD8+ cells (TRP-2 pentamer)” value in assay [2] (setting [10]) is recorded as “no significant increase in antigen-specific cells”; in assay [2] (TRP-2 + gp100 peptides + 10 μg poly(IC) + PCI (100 μg TPCS2a + light), group 4), “clear synergistic effect leading to a significant increase in the number of antigen-specific CD8+ T-cells”. Besides, the “% antigen-specific, CD44+ cells of the total CD8+ cells (HPV pentamer)” value (“% antigen-specific, CD44+ cells … (HPV pentamer)” for short) in assay [5] is “HPV-specific immune response was induced”; in assay [6] (HPV long peptide + 10 μg p(IC) twice, without PCI, group 2) it was “no effect”; in [6] (HPV long peptide, one immunisation with PCI+p(IC), one with only PCI, groups 4 and 5), “weaker, but still significant immune response”; in [6] (after two immunisations, both with 50 μg HPV long peptide + 10 μg p(IC) + PCI (100 μg TPCS2a + light), group 3) it was “strong HPV-specific immune response”; in assay [7] (setting [11]), “no immune response”; in assay [7] (HPV short peptide, 1st immunisation p(IC)+PCI, 2nd immunisation PCI only, group 6), “significant immune response”. Besides, the “% antigen-specific, CD44+ cells … (HPV pentamer)” value in [7] (after two immunisations, both with 50 μg HPV short peptide + 10 μg p(IC) + PCI (100 μg TPCS2a + light), group 5) is listed as “significant immune response”.

As for tetraphenyl chlorin disulfonate [PCI], in the assay on OVA-specific CD8 T-cells (setting [9]), the “% antigen-specific, CD44+ cells of the total CD8+ cells in blood” value was “substantially more potent than either of these adjuvants”. Moreover, the “% antigen-specific, CD44+ cells of the total CD8+ cells (TRP-2 pentamer)” value in assay [2] (setting [10]) is reported as “no significant increase in antigen-specific cells”. Moreover, the “% antigen-specific, CD44+ cells … (HPV pentamer)” value in assay [7] (setting [11]) is recorded as “no immune response”. In addition, the “% antigen-specific, CD44+ cells of the total CD8+ cells” value in assay [8] (10 μg OVA alone or with red light PCI (150 μg TPCS2a, 652 nm) only, after 1st and 2nd immunisation) is reported as “no immunisation effect”.
